Paper PMC12125351 (Communications Biology, 2025)
No end group written: not given here.

Tested on: P. aeruginosa (ATCC 27853)
Format: cell-based
Details: broth microdilution in MHB, 37 °C, 16–20 h; triplicate, n = 3

LVQRGRFGRFLSRIRRIRPRINFNIKGSI [AMP-17]
Experimentally measured MIC against P. aeruginosa (ATCC 27853): above 25 μM
